Test results: patent US7060686B2, “Anti-inflammatory compounds derived from Pseudopterogorgia elisabethae” (The Regents of the University of California, priority 2000, dated 2006)

Experiments:
[1] = system: phorbol 12-myristate 13-acetate (PMA) induced ear edema; assay: Mouse ear anti-inflammatory assay; format: in vivo; details: for inhibition in vivo at 25 µg/ear: Mus musculus, 200 min; for inhibition in vivo at 25 µg/ear / Edema (mg ± sem) / % Inhibition: topical, 200 minutes; for inhibition in vivo at 25 µg/ear / % Inhibition: 25 μg/ear with PMA, decrease in edema relative to PMA control group; for Relative Potency, Pseudopterosin A: potency estimate relative to Pseudopterosin A (historical ED50 15 μg/ear); for Relative Potency, Pseudopterosin E: potency estimate relative to Pseudopterosin E (historical ED50 40 μg/ear); for Edema (mg ± sem): 25 μg/ear test compound with 2 μg/ear PMA, left minus right ear bore weight, N=5
Experimental: A. Mouse Ear Anti-Inflammatory Assay Each compound was topically applied in acetone to the inside pinnae of the ear of a mouse in a solution containing the edema-causing irritant, phorbol 12-myristate 13-acetate (PMA). 2 μg per ear of PMA alone or 25 μg per ear of test compound in combination with PMA was applied to the left ear of each mouse and acetone (control) was applied to each right ear of each mouse. There were 5 mice per treatment group. After incubating 200 minutes, the mice were sacrificed, the ears were removed, and bores were taken and weighed. Edema (inflammation) was measured by subtracting the weight of the right ear from the weight of the left ear. Results were recorded as % decrease (inhibition) or % increase (potentiation) in edema relative to the PMA control group edema.

[2] = system: phorbol 12-myristate 13-acetate (PMA) induced ear edema; details: Jacobs' historical standards; cited from earlier work

| Structure (SMILES) | inhibition in vivo at 25 µg/ear [1] | Relative Potency, Pseudopterosin A [1] | Relative Potency, Pseudopterosin E [1] | Edema (mg ± sem) [1] | % Inhibition [1] | ED50 [2] |
| --- | --- | --- | --- | --- | --- | --- |
| CC(=O)OC1C(Oc2c(C)c3c4c(c2O)[C@@H](C)CC[C@@H]4[C@@H](C)CC3C=C(C)C)OCC(O)C1O (stereo partly shown) [Compound 1] | 68% | 118% | 324% | 2.1 ± 0.5 mg | – | – |
| CC(=O)OC1C(O)COC(Oc2c(C)c3c4c(c2O)[C@@H](C)CC[C@@H]4[C@@H](C)CC3C=C(C)C)C1O (stereo partly shown) [Compound 2] | 88% | – | – | 0.8 ± 0.2 mg | highest percent inhibition | – |
| CC(=O)OC1COC(Oc2c(C)c3c4c(c2O)[C@@H](C)CC[C@@H]4[C@@H](C)CC3C=C(C)C)C(O)C1O (stereo partly shown) [Compound 3] | 69% | 123% | 337% | 0.9 ± 0.2 mg | – | – |
| CC(=O)OC1C(Oc2c(C)cc3c(c2O)[C@@H](C)CC[C@@H]3[C@@H](C)CCC=C(C)C)OC(C)C(O)C1O (stereo partly shown) [Compound 4] | 88% | – | – | 0.8 ± 0.2 mg | highest percent inhibition | – |
| CC(=O)OC1C(O)C(C)OC(Oc2c(C)cc3c(c2O)[C@@H](C)CC[C@@H]3[C@@H](C)CCC=C(C)C)C1O (stereo partly shown) [Compound 5] | 65% | 103% | 288% | 2.4 ± 0.6 mg | – | – |
| CC(=O)OC1C(C)OC(Oc2c(C)cc3c(c2O)[C@@H](C)CC[C@@H]3[C@@H](C)CCC=C(C)C)C(O)C1O (stereo partly shown) [Compound 6] | 74% | 148% | 410% | 1.8 ± 0.3 mg | – | – |
| CC(C)=CCC[C@H](C)[C@H]1CC[C@H](C)C2=C1C(=O)C(C)=C(O)C2=O [Compound 7, elisabethadione] | 83% | – | – | 1.2 ± 0.1 mg | – | – |
| CC(C)=C[C@H]1C[C@H](C)[C@H]2CC[C@H](C)C3=C2C1(O)C(C)=C(O)C3=O (stereo partly shown) [Compound 8, elisabethadiol] | 9% | – | – | 6.2 ± 0.6 mg | – | – |
| CC(C)=C[C@H]1C[C@H](C)[C@H]2CC[C@H](C)c3c(O[C@@H]4OC[C@@H](O)[C@H](O)[C@H]4O)c(O)c(C)c1c32 [Pseudopterosin A] | – | – | – | – | – | 15 μg/ear |
| CC(C)=C[C@H]1C[C@H](C)[C@H]2CC[C@H](C)c3c(O)c(O[C@@H]4O[C@@H](C)[C@@H](O)[C@@H](O)[C@@H]4O)c(C)c1c32 [Pseudopterosin E] | – | – | – | – | – | 40 μg/ear |
